Laboratory results reported in ChEMBL document CHEMBL4373641, “Synthesis and direct comparison of the anticancer activities of phomopsolides D and E and two 7-oxa-/7-aza-analogues” (Medchemcomm, 2019).

How the values were obtained:
Type in all cases: functional, cell-based
HT-29 = test: Antiproliferative activity against human HT-29 cells assessed as reduction in cell viability after 48 hrs by SRB assay; settings: HT-29, 48 h
KM12 = test: Antiproliferative activity against human KM12 cells assessed as reduction in cell viability after 48 hrs by SRB assay; settings: KM12, 48 h
HCT-15 = test: Antiproliferative activity against human HCT15 cells assessed as reduction in cell viability after 48 hrs by SRB assay; settings: HCT-15, 48 h
HCT-116 = test: Antiproliferative activity against human HCT116 cells assessed as reduction in cell viability after 48 hrs by SRB assay; settings: HCT-116, 48 h
HCC 2998 = test: Antiproliferative activity against human HCC2998 cells assessed as reduction in cell viability after 48 hrs by SRB assay; settings: HCC 2998, 48 h
COLO 205 = test: Antiproliferative activity against human COLO205 cells assessed as reduction in cell viability after 48 hrs by SRB assay; settings: COLO 205, 48 h
NCI-H522 = test: Antiproliferative activity against human NCI-H522 cells assessed as reduction in cell viability after 48 hrs by SRB assay; settings: NCI-H522, 48 h, pooled result: one value given for 8 cell lines, strains, targets or settings
RPMI-8226 = test: Antiproliferative activity against human RPMI8226 cells assessed as reduction in cell viability after 48 hrs by SRB assay; settings: RPMI-8226, 48 h
MOLT-4 = test: Antiproliferative activity against human MOLT4 cells assessed as reduction in cell viability after 48 hrs by SRB assay; settings: MOLT-4, 48 h
K562 = test: Antiproliferative activity against human K562 cells assessed as reduction in cell viability after 48 hrs by SRB assay; settings: K562, 48 h
HL-60(TB) = test: Antiproliferative activity against human HL-60(TB) cells assessed as reduction in cell viability after 48 hrs by SRB assay; settings: HL-60, 48 h
CCRF-CEM = test: Antiproliferative activity against human CCRF-CEM cells assessed as reduction in cell viability after 48 hrs by SRB assay
SK-OV-3 = test: Antiproliferative activity against human SKOV3 cells assessed as reduction in cell viability after 48 hrs by SRB assay; settings: SK-OV-3, 48 h
OVCAR-8 = test: Antiproliferative activity against human OVCAR8 cells assessed as reduction in cell viability after 48 hrs by SRB assay; settings: OVCAR-8, 48 h
OVCAR-5 = test: Antiproliferative activity against human OVCAR5 cells assessed as reduction in cell viability after 48 hrs by SRB assay; settings: OVCAR-5, 48 h
OVCAR-4 = test: Antiproliferative activity against human OVCAR4 cells assessed as reduction in cell viability after 48 hrs by SRB assay; settings: OVCAR-4, 48 h
OVCAR-3 = test: Antiproliferative activity against human OVCAR3 cells assessed as reduction in cell viability after 48 hrs by SRB assay; settings: OVCAR-3, 48 h
IGROV-1 = test: Antiproliferative activity against human IGROV1 cells assessed as reduction in cell viability after 48 hrs by SRB assay; settings: IGROV-1, 48 h
UO-31 = test: Antiproliferative activity against human UO31 cells assessed as reduction in cell viability after 48 hrs by SRB assay; settings: UO-31, 48 h
TK-10 = test: Antiproliferative activity against human TK10 cells assessed as reduction in cell viability after 48 hrs by SRB assay; settings: TK-10, 48 h
SN12C = test: Antiproliferative activity against human SN12C cells assessed as reduction in cell viability after 48 hrs by SRB assay
RXF 393 = test: Antiproliferative activity against human RXF393 cells assessed as reduction in cell viability after 48 hrs by SRB assay; settings: RXF 393, 48 h
CAKI-1 = test: Antiproliferative activity against human CAKI-1 cells assessed as reduction in cell viability after 48 hrs by SRB assay; settings: CAKI-1, 48 h
ACHN = test: Antiproliferative activity against human ACHN cells assessed as reduction in cell viability after 48 hrs by SRB assay
A498 = test: Antiproliferative activity against human A498 cells assessed as reduction in cell viability after 48 hrs by SRB assay; settings: A498, 48 h
786-0 = test: Antiproliferative activity against human 786-0 cells assessed as reduction in cell viability after 48 hrs by SRB assay; settings: 786-0, 48 h
DU-145 = test: Antiproliferative activity against human DU145 cells assessed as reduction in cell viability after 48 hrs by SRB assay; settings: DU-145, 48 h
PC-3 = test: Antiproliferative activity against human PC3 cells assessed as reduction in cell viability after 48 hrs by SRB assay; settings: PC-3, 48 h
T47D = test: Antiproliferative activity against human T47D cells assessed as reduction in cell viability after 48 hrs by SRB assay
MDA-MB-435 = test: Antiproliferative activity against human MDA-MB-435 cells assessed as reduction in cell viability after 48 hrs by SRB assay; settings: MDA-MB-435, 48 h
Hs-578T = test: Antiproliferative activity against human Hs 578T cells assessed as reduction in cell viability after 48 hrs by SRB assay
MDA-MB-231 = test: Antiproliferative activity against human MDA-MB-231 cells assessed as reduction in cell viability after 48 hrs by SRB assay; settings: MDA-MB-231, 48 h
NCI/ADR-RES = test: Antiproliferative activity against human NCI/ADR-RES cells assessed as reduction in cell viability after 48 hrs by SRB assay
MCF7 = test: Antiproliferative activity against human MCF7 cells assessed as reduction in cell viability after 48 hrs by SRB assay; settings: MCF7, 48 h
U-251 = test: Antiproliferative activity against human U251 cells assessed as reduction in cell viability after 48 hrs by SRB assay; settings: U-251, 48 h
SNB-75 = test: Antiproliferative activity against human SNB75 cells assessed as reduction in cell viability after 48 hrs by SRB assay; settings: SNB-75, 48 h
SNB-19 = test: Antiproliferative activity against human SNB19 cells assessed as reduction in cell viability after 48 hrs by SRB assay; settings: SNB-19, 48 h
SF-539 = test: Antiproliferative activity against human SF539 cells assessed as reduction in cell viability after 48 hrs by SRB assay; settings: SF-539, 48 h
SF-295 = test: Antiproliferative activity against human SF295 cells assessed as reduction in cell viability after 48 hrs by SRB assay; settings: SF-295, 48 h
SF-268 = test: Antiproliferative activity against human SF268 cells assessed as reduction in cell viability after 48 hrs by SRB assay; settings: SF-268, 48 h
UACC-62 = test: Antiproliferative activity against human UACC62 cells assessed as reduction in cell viability after 48 hrs by SRB assay; settings: UACC-62, 48 h, pooled result: one value given for 8 cell lines, strains, targets or settings
SW-620 = test: Antiproliferative activity against human SW620 cells assessed as reduction in cell viability after 48 hrs by SRB assay; settings: SW-620, 48 h
HOP-92 = test: Antiproliferative activity against human HOP92 cells assessed as reduction in cell viability after 48 hrs by SRB assay; settings: HOP-92, 48 h
BT-549 = test: Antiproliferative activity against human BT549 cells assessed as reduction in cell viability after 48 hrs by SRB assay; settings: BT-549, 48 h
MDA-MB-468 = test: Antiproliferative activity against human MDA-MB-468 cells assessed as reduction in cell viability after 48 hrs by SRB assay; settings: MDA-MB-468, 48 h
SR = test: Antiproliferative activity against human SR cells assessed as reduction in cell viability after 48 hrs by SRB assay

Which results are given for `C/C=C(\C)C(=O)O[C@H]1C=CC(=O)O[C@H]1CC[C@H](O)[C@H](C)O` [6,7-DIHYDROPHOMOPSOLIDE B]?
IC50 (HT-29): 2 to 49 µM; IC50 (KM12): 2 to 49 µM; IC50 (HCT-15): 2 to 49 µM; IC50 (HCT-116): 2 to 49 µM; IC50 (HCC 2998): 2 to 49 µM; IC50 (COLO 205): 2 to 49 µM; IC50 (NCI-H522): 18 µM; IC50 (RPMI-8226): 2 to 49 µM; IC50 (MOLT-4): 2 to 49 µM; IC50 (K562): 2 to 49 µM; IC50 (HL-60(TB)): 2 to 49 µM; IC50 (CCRF-CEM): 2 to 49 µM; IC50 (SK-OV-3): 18 µM; IC50 (OVCAR-8): 18 µM; IC50 (OVCAR-5): 18 µM; IC50 (OVCAR-4): 18 µM; IC50 (OVCAR-3): 18 µM; IC50 (IGROV-1): 18 µM; IC50 (UO-31): 2 to 49 µM; IC50 (TK-10): 2 to 49 µM; IC50 (SN12C): 2 to 49 µM; IC50 (RXF 393): 2 to 49 µM; IC50 (CAKI-1): 2 to 49 µM; IC50 (ACHN): 2 to 49 µM; IC50 (A498): 2 to 49 µM; IC50 (786-0): 2 to 49 µM; IC50 (DU-145): 18 µM; IC50 (PC-3): 18 µM; IC50 (T47D): 11 µM; IC50 (MDA-MB-435): 11 µM; IC50 (Hs-578T): 11 µM; IC50 (MDA-MB-231): 11 µM; IC50 (NCI/ADR-RES): 11 µM; IC50 (MCF7): 11 µM; IC50 (U-251): 17 µM; IC50 (SNB-75): 17 µM; IC50 (SNB-19): 17 µM; IC50 (SF-539): 17 µM; IC50 (SF-295): 17 µM; IC50 (SF-268): 17 µM; IC50 (UACC-62): 2 to 49 µM; IC50 (SW-620): 2 to 49 µM; IC50 (HOP-92): 2 to 49 µM; IC50 (BT-549): 2 to 49 µM; IC50 (MDA-MB-468): 2 to 49 µM; IC50 (SR): 2 to 49 µM
